The results in this text go back to ChEMBL document CHEMBL1121670, “Aporphines. 34. (-)-2,10,11-Trihydroxy-N-n-propylnoraporphine, a novel dopaminergic aporphine alkaloid with anticonvulsant activity” (1981).

The species named for assay [1] is Mus musculus. Kind of assay: Evaluated for audiogenic seizures in DBA/ 2 mice, in the protection against paroxysimal EEG at an interval of 30 minutes. The class given is functional. The following applies: 0.5 h.
Assay [2] has as its target Adenylate cyclase type 5 (Homo sapiens) (UniProt O95622). In words: Compound was evaluated for the elicited effect on adenylate cyclase activity in homogenates of carp retina at 10 uM. The class given is functional, tissue-based. The note with it: Cyprinus carpio.
The test system of assay [3] is Papio papio. In words: Duration of protection for abolition of myoclonic responses to photic stimulation in the baboon (Papio papio) at 0.2 mg/kg; Duration of protection ranges from 180-300 min. The class given is functional.
Assay [4] relates to Papio papio. Kind of assay: Duration of protection for abolition of myoclonic responses to photic stimulation in the baboon (Papio papio) at 0.5 mg/kg; Duration of protection ranges from 30-45 min. Type of assay: functional.
The species entered for assay [5] is Mus musculus. Kind of assay: Evaluated for audiogenic seizures in DBA/ 2 mice, in the protection against paroxysimal EEG at an interval of 20 minutes. The class given is functional.
Assay [6] is filed under the species Mus musculus. Kind of assay: Evaluated for audiogenic seizures in DBA/ 2 mice, in the protection against paroxysimal EEG at an interval of 60 minutes. Type of assay: functional. The following applies: 1 h.
The subject of assay [7] is Papio papio. In words: Duration of protection for abolition of myoclonic responses to photic stimulation in the baboon (Papio papio) at 0.2 mg/kg. The class given is functional.

Sequence of Adenylate cyclase type 5 (Homo sapiens) (O95622 whole entry, looked up): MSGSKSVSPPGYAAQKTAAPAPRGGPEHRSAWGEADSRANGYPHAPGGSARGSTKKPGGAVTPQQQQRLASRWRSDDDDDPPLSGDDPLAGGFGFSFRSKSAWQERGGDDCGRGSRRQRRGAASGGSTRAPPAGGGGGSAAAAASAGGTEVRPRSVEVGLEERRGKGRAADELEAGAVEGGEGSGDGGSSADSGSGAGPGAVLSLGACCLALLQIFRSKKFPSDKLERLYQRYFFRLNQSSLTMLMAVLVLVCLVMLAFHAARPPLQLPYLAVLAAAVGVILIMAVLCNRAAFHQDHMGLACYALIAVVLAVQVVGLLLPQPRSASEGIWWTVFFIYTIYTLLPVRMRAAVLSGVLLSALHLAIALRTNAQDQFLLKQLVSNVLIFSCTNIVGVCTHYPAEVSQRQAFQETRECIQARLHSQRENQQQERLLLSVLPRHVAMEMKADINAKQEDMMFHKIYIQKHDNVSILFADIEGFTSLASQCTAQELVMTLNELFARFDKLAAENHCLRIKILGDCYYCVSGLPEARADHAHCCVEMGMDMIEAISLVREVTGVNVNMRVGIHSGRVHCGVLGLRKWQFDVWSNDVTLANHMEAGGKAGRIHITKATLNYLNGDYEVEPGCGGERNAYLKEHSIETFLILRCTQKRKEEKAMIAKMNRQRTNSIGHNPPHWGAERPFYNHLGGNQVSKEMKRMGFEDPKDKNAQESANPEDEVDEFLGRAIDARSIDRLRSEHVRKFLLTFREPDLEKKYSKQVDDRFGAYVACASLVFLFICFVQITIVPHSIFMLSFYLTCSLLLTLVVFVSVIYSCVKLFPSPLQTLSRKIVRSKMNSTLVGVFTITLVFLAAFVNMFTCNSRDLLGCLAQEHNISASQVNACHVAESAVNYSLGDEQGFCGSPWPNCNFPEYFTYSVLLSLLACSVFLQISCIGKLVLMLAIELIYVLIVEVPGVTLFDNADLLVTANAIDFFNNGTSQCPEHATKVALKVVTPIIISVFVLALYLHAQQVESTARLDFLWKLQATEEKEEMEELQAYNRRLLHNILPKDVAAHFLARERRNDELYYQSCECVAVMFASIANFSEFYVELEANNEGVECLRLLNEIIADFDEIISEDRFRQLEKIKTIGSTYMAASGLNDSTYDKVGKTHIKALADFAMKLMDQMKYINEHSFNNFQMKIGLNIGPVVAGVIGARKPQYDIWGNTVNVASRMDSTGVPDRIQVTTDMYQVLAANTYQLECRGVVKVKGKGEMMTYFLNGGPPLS

In the assay listed under Mus musculus [1], `CCCN1CCc2cc(O)cc3c2[C@H]1Cc1ccc(O)c(O)c1-3` returned an ED50 of 0.72 mg/kg. For the same compound, in assay [2], the Response turned out to be 43.4%. The compound further came in with a Duration in the assay with Papio papio [3] of 180 min.

In the assay on Papio papio [4], `CN1CCc2cccc3c2[C@H]1Cc1ccc(O)c(O)c1-3` [APOMORPHINE] had a Duration of 30 min. In the assay filed under Mus musculus [5], the ED50 was determined as 0.7 mg/kg.

For `CC(C)C[C@H]1C(=O)N2CCC[C@H]2[C@]2(O)O[C@](NC(=O)[C@@H]3C=C4c5cccc6[nH]c(Br)c(c56)C[C@H]4N(C)C3)(C(C)C)C(=O)N12` [BROMOCRIPTINE], it took a dose of 5 mg/kg to reach the 50% effect level in the assay listed under Mus musculus [6] (ED50).

For `CCCN1CCc2cccc3c2[C@H]1Cc1ccc(O)c(O)c1-3` [R-N-PROPYLNORAPOMORPHINE], it took a dose of 0.075 mg/kg to reach the 50% effect level in the assay filed under Mus musculus [1] (ED50). The compound also displayed a Duration in the assay with Papio papio [7] of 180 min.

What is called ED50 is the dose at which the effect has come halfway, by size or by number of responders. Low values mean greater potency, high ones weaker potency.
